Assays:
[1] = Drug uptake in anesthetized cynomolgus monkey brain cerebellum after 187.5 mins postinjection; type: ADME, organism-based, Macaca fascicularis; settings: in vivo, 3.125 h
[2] = test system: Caudate; test: Drug uptake in anesthetized cynomolgus monkey brain caudate after 182.5 mins postinjection; type: ADME, organism-based, Macaca fascicularis, Caudate nucleus; settings: in vivo
[3] = test system: Pons; test: Drug uptake in anesthetized cynomolgus monkey brain pons after 202.5 mins postinjection; type: ADME, organism-based, Macaca fascicularis; settings: in vivo, 3.375 h
[4] = test system: Thalamus; test: Drug uptake in anesthetized cynomolgus monkey brain thalamus after 182.5 mins postinjection; type: ADME, organism-based, Macaca fascicularis; settings: in vivo
[5] = Drug uptake in anesthetized cynomolgus monkey brain frontal lobe after 202.5 mins postinjection; type: ADME, organism-based, Macaca fascicularis; settings: in vivo, 3.375 h
[6] = test system: Medulla; test: Drug uptake in anesthetized cynomolgus monkey brain medulla after 197.5 mins postinjection; type: ADME, organism-based, Macaca fascicularis; settings: in vivo
[7] = Drug uptake in anesthetized cynomolgus monkey brain frontal lobe after 207.5 mins postinjection; type: ADME, organism-based, Macaca fascicularis; settings: in vivo
[8] = test system: Pons; test: Drug uptake in anesthetized cynomolgus monkey brain pons after 187.5 mins postinjection; type: ADME, organism-based, Macaca fascicularis; settings: in vivo, 3.125 h
[9] = Drug uptake in anesthetized cynomolgus monkey brain cerebellum after 192.5 mins postinjection; type: ADME, organism-based, Macaca fascicularis; settings: in vivo
[10] = Drug uptake in anesthetized cynomolgus monkey brain frontal lobe after 192.5 mins postinjection; type: ADME, organism-based, Macaca fascicularis; settings: in vivo
[11] = Drug uptake in anesthetized cynomolgus monkey brain occipital lobe after 187.5 mins postinjection; type: ADME, organism-based, Macaca fascicularis; settings: in vivo, 3.125 h
[12] = test system: Thalamus; test: Drug uptake in anesthetized cynomolgus monkey brain thalamus after 197.5 mins postinjection; type: ADME, organism-based, Macaca fascicularis; settings: in vivo
[13] = test system: Caudate; test: Drug uptake in anesthetized cynomolgus monkey brain caudate after 192.5 mins postinjection; type: ADME, organism-based, Macaca fascicularis, Caudate nucleus; settings: in vivo
[14] = target: Sodium-dependent noradrenaline transporter (Homo sapiens, UniProt P23975); test: Displacement of [3H]nisoxetine from human NET transfected in human HEK293 cells; type: cell-based
[15] = Drug uptake in awake rhesus monkey cerebellum after 1.8 mins postinjection; type: ADME, organism-based, Macaca mulatta; settings: in vivo, 0.03 h
[16] = Ratio of drug uptake in medulla to cerebellum in anesthetized cynomolgus monkey after 235 mins postinjection; type: ADME, organism-based, Macaca fascicularis; settings: in vivo
[17] = Drug uptake in awake rhesus monkey midbrain after 1.8 mins postinjection; type: ADME, organism-based, Macaca mulatta; settings: in vivo, 0.03 h
[18] = Drug uptake in awake rhesus monkey thalamus after 2.8 mins postinjection; type: ADME, organism-based, Macaca mulatta; settings: in vivo, 168 s
[19] = Drug uptake in awake rhesus monkey brain midbrain after 7.5 mins postinjection; type: ADME, organism-based, Macaca mulatta; settings: in vivo, 0.125 h
[20] = Ratio of drug uptake in caudate to cerebellum in awake rhesus monkey after 2.8 mins postinjection; type: ADME, organism-based, Macaca mulatta; settings: in vivo, 168 s
[21] = Ratio of drug uptake in frontal lobe to cerebellum in awake rhesus monkey after 4.5 mins postinjection; type: ADME, organism-based, Macaca mulatta; settings: in vivo, 0.075 h
[22] = Drug uptake in awake rhesus monkey cerebellum after 0.3 mins postinjection; type: ADME, organism-based, Macaca mulatta; settings: in vivo, 0.005 h
[23] = Ratio of drug uptake in putamen to cerebellum in awake rhesus monkey after 0.8 mins postinjection; type: ADME, organism-based, Macaca mulatta; settings: in vivo, 48 s
[24] = Drug uptake in awake rhesus monkey occipital lobe after 25 mins postinjection; type: ADME, organism-based, Macaca mulatta; settings: in vivo
[25] = Drug uptake in awake rhesus monkey occipital lobe after 35 mins postinjection; type: ADME, organism-based, Macaca mulatta; settings: in vivo
[26] = Drug uptake in awake rhesus monkey occipital lobe after 65 mins postinjection; type: ADME, organism-based, Macaca mulatta; settings: in vivo
[27] = Ratio of drug uptake in pons to cerebellum in awake rhesus monkey after 2.3 mins postinjection; type: ADME, organism-based, Macaca mulatta; settings: in vivo, 138 s
[28] = Drug uptake in awake rhesus monkey frontal lobe after 2.8 mins postinjection; type: ADME, organism-based, Macaca mulatta; settings: in vivo, 168 s
[29] = Ratio of drug uptake in frontal lobe to cerebellum in awake rhesus monkey after 2.8 mins postinjection; type: ADME, organism-based, Macaca mulatta; settings: in vivo, 168 s
[30] = Drug uptake in awake rhesus monkey putamen after 0.3 mins postinjection; type: ADME, organism-based, Macaca mulatta; settings: in vivo, 0.005 h
[31] = Drug uptake in awake rhesus monkey medulla after 0.8 mins postinjection; type: ADME, organism-based, Macaca mulatta, Medulla of organ; settings: in vivo, 48 s
[32] = Ratio of drug uptake in thalamus to cerebellum in awake rhesus monkey after 2.8 mins postinjection; type: ADME, organism-based, Macaca mulatta; settings: in vivo, 168 s
[33] = Ratio of drug uptake in occipital lobe to cerebellum in awake rhesus monkey after 4.5 mins postinjection; type: ADME, organism-based, Macaca mulatta; settings: in vivo, 0.075 h
[34] = Drug uptake in awake rhesus monkey midbrain after 0.3 mins postinjection; type: ADME, organism-based, Macaca mulatta; settings: in vivo, 0.005 h
[35] = Drug uptake in awake rhesus monkey midbrain after 2.3 mins postinjection; type: ADME, organism-based, Macaca mulatta; settings: in vivo, 138 s
[36] = Drug uptake in awake rhesus monkey brain cerebellum after 10.5 mins postinjection; type: ADME, organism-based, Macaca mulatta; settings: in vivo, 0.175 h
[37] = Ratio of drug uptake in occipital lobe to cerebellum in awake rhesus monkey after 7.5 mins postinjection; type: ADME, organism-based, Macaca mulatta; settings: in vivo, 0.125 h
[38] = Drug uptake in awake rhesus monkey occipital lobe after 105 mins postinjection; type: ADME, organism-based, Macaca mulatta; settings: in vivo, 1.75 h
[39] = Ratio of drug uptake in midbrain to cerebellum in awake rhesus monkey after 7.5 mins postinjection; type: ADME, organism-based, Macaca mulatta; settings: in vivo, 0.125 h
[40] = Ratio of drug uptake in pons to cerebellum in anesthetized cynomolgus monkey after 165 mins postinjection; type: ADME, organism-based, Macaca fascicularis; settings: in vivo, 2.75 h
[41] = Drug uptake in awake rhesus monkey brain cerebellum after 45 mins postinjection; type: ADME, organism-based, Macaca mulatta; settings: in vivo, 0.75 h
[42] = Drug uptake in awake rhesus monkey brain caudate after 55 mins postinjection; type: ADME, organism-based, Macaca mulatta, Caudate nucleus; settings: in vivo
[43] = Drug uptake in awake rhesus monkey occipital lobe after 55 mins postinjection; type: ADME, organism-based, Macaca mulatta; settings: in vivo
[44] = Drug uptake in awake rhesus monkey brain frontal lobe after 105 mins postinjection; type: ADME, organism-based, Macaca mulatta; settings: in vivo, 1.75 h
[45] = Drug uptake in awake rhesus monkey brain medulla after 55 mins postinjection; type: ADME, organism-based, Macaca mulatta; settings: in vivo
[46] = Drug uptake in awake rhesus monkey putamen after 1.8 mins postinjection; type: ADME, organism-based, Macaca mulatta; settings: in vivo, 0.03 h
[47] = Ratio of drug uptake in putamen to cerebellum in awake rhesus monkey after 0.3 mins postinjection; type: ADME, organism-based, Macaca mulatta; settings: in vivo, 0.005 h
[48] = Drug uptake in awake rhesus monkey brain pons after 0.25 mins postinjection; type: ADME, organism-based, Macaca mulatta; settings: in vivo, 15 s
[49] = Protein binding in anesthetized cynomolgus monkey plasma after 15 mins postinjection; type: ADME, organism-based, Macaca fascicularis; settings: read-out: PPB (converted)
[50] = Metabolic stability in anesthetized cynomolgus monkey plasma after 180 mins postinjection; type: ADME, organism-based, Macaca fascicularis; settings: read-out: Stability
[51] = Drug uptake in awake rhesus monkey brain thalamus after 1.25 mins postinjection; type: ADME, organism-based, Macaca mulatta; settings: in vivo, 75 s
[52] = Drug uptake in awake rhesus monkey brain midbrain after 13.5 mins postinjection; type: ADME, organism-based, Macaca mulatta; settings: in vivo, 0.225 h
[53] = Protein binding in anesthetized cynomolgus monkey plasma after 60 mins postinjection; type: ADME, organism-based, Macaca fascicularis; settings: read-out: PPB (converted)
[54] = Ratio of drug uptake in thalamus to cerebellum in awake rhesus monkey after 75 mins postinjection; type: ADME, organism-based, Macaca mulatta; settings: in vivo, 1.25 h
[55] = Drug uptake in awake rhesus monkey brain midbrain after 1.25 mins postinjection; type: ADME, organism-based, Macaca mulatta; settings: in vivo, 75 s
[56] = Protein binding in anesthetized cynomolgus monkey plasma after 1 min postinjection; type: ADME, organism-based, Macaca fascicularis; settings: read-out: PPB (converted)
[57] = Drug uptake in awake rhesus monkey brain medulla after 17.5 mins postinjection; type: ADME, organism-based, Macaca mulatta; settings: in vivo
[58] = Drug uptake in awake rhesus monkey brain cerebellum after 115 mins postinjection; type: ADME, organism-based, Macaca mulatta; settings: in vivo
[59] = Drug uptake in awake rhesus monkey brain pons after 13.5 mins postinjection; type: ADME, organism-based, Macaca mulatta; settings: in vivo, 0.225 h
[60] = Drug uptake in awake rhesus monkey brain frontal lobe after 1.25 mins postinjection; type: ADME, organism-based, Macaca mulatta; settings: in vivo, 75 s
[61] = Drug uptake in awake rhesus monkey brain pons after 4.5 mins postinjection; type: ADME, organism-based, Macaca mulatta; settings: in vivo, 0.075 h
[62] = Protein binding in anesthetized cynomolgus monkey plasma after 30 mins postinjection; type: ADME, organism-based, Macaca fascicularis; settings: read-out: PPB (converted)
[63] = Protein binding in anesthetized cynomolgus monkey plasma after 2 mins postinjection; type: ADME, organism-based, Macaca fascicularis; settings: read-out: PPB (converted)
[64] = Metabolic stability in anesthetized cynomolgus monkey plasma after 1 min postinjection; type: ADME, organism-based, Macaca fascicularis; settings: read-out: Stability
[65] = Drug uptake in awake rhesus monkey brain medulla after 0.25 mins postinjection; type: ADME, organism-based, Macaca mulatta; settings: in vivo, 15 s
[66] = Drug uptake in awake rhesus monkey brain putamen after 1.25 mins postinjection; type: ADME, organism-based, Macaca mulatta; settings: in vivo, 75 s
[67] = Ratio of drug uptake in medulla to cerebellum in anesthetized cynomolgus monkey after 6.5 mins postinjection; type: ADME, organism-based, Macaca fascicularis; settings: in vivo
[68] = Drug uptake in anesthetized cynomolgus monkey brain cerebellum after 125 mins postinjection; type: ADME, organism-based, Macaca fascicularis; settings: in vivo

Sodium-dependent noradrenaline transporter, sequence (P23975 whole entry): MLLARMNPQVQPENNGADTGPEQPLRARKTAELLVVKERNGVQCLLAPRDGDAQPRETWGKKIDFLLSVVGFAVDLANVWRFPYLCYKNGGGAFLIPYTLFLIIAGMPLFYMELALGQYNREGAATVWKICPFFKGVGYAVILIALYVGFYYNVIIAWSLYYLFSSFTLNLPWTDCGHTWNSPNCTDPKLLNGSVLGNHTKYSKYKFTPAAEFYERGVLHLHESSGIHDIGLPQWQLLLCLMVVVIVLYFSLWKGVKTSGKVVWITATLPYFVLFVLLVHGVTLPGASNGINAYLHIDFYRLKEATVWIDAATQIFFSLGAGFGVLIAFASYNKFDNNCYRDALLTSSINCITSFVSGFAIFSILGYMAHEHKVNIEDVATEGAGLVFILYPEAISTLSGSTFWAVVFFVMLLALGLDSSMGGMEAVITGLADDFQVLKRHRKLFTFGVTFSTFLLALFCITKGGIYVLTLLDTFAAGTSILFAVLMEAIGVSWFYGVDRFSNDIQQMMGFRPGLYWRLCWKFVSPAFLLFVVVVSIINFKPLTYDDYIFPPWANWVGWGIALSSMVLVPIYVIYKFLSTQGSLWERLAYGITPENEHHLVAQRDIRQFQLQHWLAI

For `O=C(OCCC[18F])C1C2CCC(CC1c1cccc(/C=C\Br)c1)N2` (stereo not given), which Drug uptake [1] is on record?
The Drug uptake was 2.35.

And the Drug uptake [2]?
The Drug uptake was 3.95.

And the Drug uptake [3]?
The Drug uptake was 3.68.

And the Drug uptake [4]?
Its Drug uptake is 3.94.

What about the Drug uptake [5] of the same compound?
Its Drug uptake is 2.23.

And the Drug uptake [6]?
Its Drug uptake is 3.73.

And the Drug uptake [7]?
The Drug uptake was 2.03.

And the Drug uptake [8]?
Its Drug uptake is 3.85.

And the Drug uptake [9]?
The Drug uptake was 2.38.

And the Drug uptake [10]?
Its Drug uptake is 2.16.

What about the Drug uptake [11] of the same compound?
Its Drug uptake is 3.05.

What about the Drug uptake [12] of the same compound?
Its Drug uptake is 3.74.

And the Drug uptake [13]?
Its Drug uptake is 3.75.

What does the source list for `O=C(OCC[18F])C1C2CCC(CC1c1ccc(/C=C\I)cc1)N2` (stereo not given)?
Ki [14]: 28 nM; Drug uptake [15]: 0.27; Ratio [16]: 3.3; Drug uptake [17]: 0.25; Drug uptake [18]: 0.65; Drug uptake [19]: 1.35; Ratio [20]: 1; Ratio [21]: 0.9; Drug uptake [22]: 0.01; Ratio [23]: 7.2; Drug uptake [24]: 2.48; Drug uptake [25]: 2.65; Drug uptake [26]: 2.71; Ratio [27]: 0.9; Drug uptake [28]: 0.47; Ratio [29]: 0.9; Drug uptake [30]: 0.05; Drug uptake [31]: 0; Ratio [32]: 1.3; Ratio [33]: 0.9; Drug uptake [34]: 0.08; Drug uptake [35]: 0.39; Drug uptake [36]: 1.66; Ratio [37]: 1; Drug uptake [38]: 2.58; Ratio [39]: 1; Ratio [40]: 2.6; Drug uptake [41]: 1.93; Drug uptake [42]: 3.11; Drug uptake [43]: 2.73; Drug uptake [44]: 2.07; Drug uptake [45]: 2.48; Drug uptake [46]: 0.31; Ratio [47]: 5.1

What does the source list for `O=C(OCC[18F])C1C2CCC(CC1c1cccc(/C=C\I)c1)N2` (stereo not given)?
Drug uptake [48]: 0; fraction unbound at 0.25 h [49]: 0.932; Drug uptake [2]: 2.31; remaining at 3 h [50]: 13%; Drug uptake [3]: 2.25; Drug uptake [51]: 0.01; Drug uptake [4]: 2.74; Drug uptake [19]: 0.08; Drug uptake [52]: 0.09; fraction unbound at 1 h [53]: 0.915; Drug uptake [6]: 2.51; Ratio [54]: 1.5; Drug uptake [55]: 0.01; fraction unbound at 1 min [56]: 0.942; Drug uptake [57]: 0.1; Drug uptake [58]: 0.08; Drug uptake [59]: 0.08; Drug uptake [60]: 0; Drug uptake [8]: 2.31; Drug uptake [9]: 1.49; Drug uptake [61]: 0.05; Drug uptake [36]: 0.08; fraction unbound at 0.5 h [62]: 0.916; fraction unbound at 2 min [63]: 0.944; Ratio [39]: 1.1; remaining at 1 min [64]: 93%; Drug uptake [41]: 0.12; Drug uptake [42]: 0.15; Drug uptake [65]: 0; Drug uptake [44]: 0.1; Drug uptake [45]: 0.12; Drug uptake [66]: 0.01; Drug uptake [12]: 2.46; Drug uptake [13]: 2.28

Which results are given for `O=C(OCC[18F])C1C2CCC(CC1c1cccc(/C=C\Br)c1)N2` (stereo not given)?
Ratio [67]: 1.3; Drug uptake [68]: 2.68

Which Ratio [67] does the source give for `O=C(OCCC[18F])C1C2CCC(CC1c1cccc(/C=C\I)c1)N2` (stereo not given) here?
The Ratio was 1.

And the Drug uptake [68]?
Its Drug uptake is 2.79.

Reference: ChEMBL document CHEMBL1151757, “Synthesis, radiosynthesis, and biological evaluation of fluorine-18-labeled 2beta-carbo(fluoroalkoxy)-3beta-(3'-((Z)-2-haloethenyl)phenyl)nortropanes: candidate radioligands for in vivo imaging of the serotonin transporter with positron emission tomography” (J Med Chem, 2008)
